Assay [1] relates to Creb312. Briefly: Proteolytic cleavage of HA-tagged full-length Creb312 to the nuclear form in NRVM after chemical ER stressors or hypertrophic agonists (Western Blot, anti-HA). Format: cell-based, rat. The method, then: Isolation of neonatal rat ventricular cardiomyocytes. All procedures described below were conducted according to the guidelines of the Harvard University Animal Care and Use Committee. Ventricular myocytes were isolated from 2 day-old Sprague Dawley rats as briefly described. Excised ventricular tissue was agitated in a 0.1% trypsin solution cooled to 4° C. for approximately 14 hours. Trypsinized ventricles were dissociated into their cellular constituents via serial exposure to a 0.1% solution of collagenase type II at 37° C. for 2 minutes. The myocyte portion of the cell population was enriched by passing the dissociated cell solution through a nylon mesh with 40 μm pores, and then pre-plating twice for 45 minutes each time. 10^6 isolated myocytes were seeded onto silicon membranes coated with fibronectin in culture medium consisting of M199 base supplemented with 10% heat-inactivated Fetal Bovine Serum, 10 mM HEPES, 20 mM glucose, 2 mM L-glutamine, 1.5 ? M vitamin B-12, and 50 U/ml penicillin. On the second day of culture, the serum concentration of the medium was reduced to 2%, and the medium was changed every 48 hours thereafter.
Adenovirus preparation and infection. Replication-defective recombinant adenoviruses expressing GFP and either HA-Creb312(FL) or HA-Creb312(N) under the control of CMV in bicistronic cassettes were generated using the AdEasy XL system (Stratagene). Briefly, HA-Creb312(FL) or HA-Creb312(N) were subcloned into the adenovirus shuttle vector pAdTrack-CMV (generous gift by Bert Vogelstein, Ref), and these constructs used for the generation of Ad.Creb312(FL) or Ad.Creb312(N), respectively, according to manufacturer's instructions. Adenoviral shuttle constructs for the expression of miRNAs against rat ILK, rat FAK, rat Creb312 under the control of hCMV were obtained by subcloning the XbaI/HindIII fragments of the respective miRNA expression constructs in pcDNA6-GW/EmGFP-miR (Invitrogen) into pShuttle (Stratagene). The recombinant adenoviruses were concentrated and purified by CsCl gradient ultracentrifugation, and the virus titer was determined through plaque assay.
NRVM were transduced with adenovirus at 5 moi (multiplicity of infection) in serum-free M199 for 90 min and maintained for 48 h in M-199/2% FCS before mechanical stretch, hypoxia experiments or treatment with chemicals.
Treatment with chemical ER stressors, cardiac hypertrophic agonists, hypoxic stress. 5×10^5 NRVM were plated in 6 well plates, transduced with Ad.Creb312(FL) and treated 48 h afterwards with tunicamycin (Tm), thapsigargin (Tg), brefeldin A (BFA) or DTT (1 mM) for 30 min and harvested for immunoblot analyses. Alternatively, NRVM were treated with phenylephrine, angiotensin II, endothelin or isoproterenol for 24 h. For hypoxic stress, 5×10^5 NRVM were plated in 6 well plates and switched from 20% O2/5% CO2 to 0.1% O2/5% CO2 for the indicated times.
Immunoprecipitation and Immunoblot. For immunoprecipitation, 10 μg pcDNA3/3xFlag-Creb312(N) were transfected into COS7 cells with Fugene HD (Roche). 48 h later, cells were washed once with PBS, harvested and lysed in 50 mM Tris-HCl pH 7.4, 150 mM NaCl, 1% Triton X-100 and Complete Protease Inhibitor (Roche) on ice. After centrifugation at 13000 rpm, 30 min, 4C, the supernatant was used for subsequent experiments. Embryonic hearts of various stages were homogenized in ice-cold PBS with a Rotor-Stator Homogenizer, and nuclear extracts were prepared from the cell pellets using the NE-PER Nuclear and Cytoplasmic Extraction Reagents (Pierce). Protein concentrations were determined with the Protein Assay Dye Reagent (Bio-Rad). 1.8 mg 3× Flag-Creb312(N) protein extract and 25 μg heart nuclear extract were rotated with 40 μl anti-Flag M2 Affinity gel (Sigma) at 4C over night. […]
For orientation: Immunoblotting shows a protein as a band on a membrane.

In assay [2] the test system is Creb312. Briefly: Formation of nuclear Creb312 in Ad.Creb312(FL)-transduced NRVM under biaxial mechanical stretch after pathway inhibition (immunoblot). Format: cell-based, rat. As to conditions: NRVM with Ad.Creb312(FL), inhibitor 30 min prior to 10% pulsary (cyclic) biaxial stretch, Akt1/2 inhibitor 1 μM, SH6 10 μM, LY294002 10 μM, PD98059 25 μM, U0126 10 μM, SP600125 10 μM, PP2 1 μM, SB203580 25 μM, wortmannin 200 nM, FIG. 5. As for the experimental part: Biaxial mechanical stretch experiments. Freshly isolated NRVM were seeded at 10^6 on fibronectin-coated silicon membranes and transduced with Ad.Creb312(FL) 48 h later. 2 days later, biaxial mechanical stretch experiments were carried out on devices as previously described (Ref, Andre Kleber paper) for indicated times. Cells were rinsed once in ice-cold PBS, harvested, lysed and processed for immunoblot. For inhibition experiments, NRVM were treated with chemical inhibitors for 30 min prior to stretching. All chemical inhibitors used were from Calbiochem except Akt1/2 inhibitor and wortmannin (Sigma). Concentrations used were: Akt1/2 inhibitor (1 μM), SH6 (10 μM), LY294002 (10 μM), PD98059 (25 μM), U0126 (10 μM), SP600125 (10 μM), PP2 (1 μM), SB203580 (25 μM), wortmannin (200 nM). […]
Immunoprecipitation and Immunoblot. For immunoprecipitation, 10 μg pcDNA3/3xFlag-Creb312(N) were transfected into COS7 cells with Fugene HD (Roche). 48 h later, cells were washed once with PBS, harvested and lysed in 50 mM Tris-HCl pH 7.4, 150 mM NaCl, 1% Triton X-100 and Complete Protease Inhibitor (Roche) on ice. After centrifugation at 13000 rpm, 30 min, 4C, the supernatant was used for subsequent experiments. Embryonic hearts of various stages were homogenized in ice-cold PBS with a Rotor-Stator Homogenizer, and nuclear extracts were prepared from the cell pellets using the NE-PER Nuclear and Cytoplasmic Extraction Reagents (Pierce). Protein concentrations were determined with the Protein Assay Dye Reagent (Bio-Rad). 1.8 mg 3× Flag-Creb312(N) protein extract and 25 μg heart nuclear extract were rotated with 40 μl anti-Flag M2 Affinity gel (Sigma) at 4C over night. Resins were washed twice each with 50 mM Tris-HCl pH 7.4, 150 mM NaCl with or without 0.1% Triton X-100, eluted with 15 μg 3× Flag peptide (Sigma), and 25 μl or 75 μl eluate were loaded on 10% SDS-polyacrylamide gels for subsequent immunoblot analysis. For immunoblots of mechanical stretch- or chemically treated-cardiomyocytes, 25 μg total cell extract were separated on 10% SDS-polyacrylamide gels. Primary antibodies used were: anti-Flag M2 (Sigma, 1:200), anti-HA (Bethyl, 1:4000), anti-Creb312 (1:2000), anti-phospho (Ser473)Akt (Cell Signaling, 1:1000), anti-phospho (Thr308)Akt (Cell Signaling, 1:1000), anti-Akt (Cell Signaling, 1:1000), anti-phospho p44/42 (Cell Signaling, 1:1000). Secondary antibodies (horseradish peroxidase-conjugated rabbit anti-mouse IgG or goat anti-rabbit IgG, Dako) were used at 1:10^5′ and immunoblots were developed with SuperSignal West Femto Substrate (Pierce).

A further assay deals with BNP promoter region. Briefly: BNP promoter regulated luciferase gene expression assay. Format: cell-based. As to conditions: for BNP regulated luciferase gene expression: 10 ng DNA. An excerpt:
(§1) FIGS. 8A-8D show the nuclear form of Creb312 activates BNP regulated luciferase gene expression.

A further assay relates to ANF promoter region. Briefly: ANF promoter regulated luciferase gene expression assay. The assay is classed as cell-based. As to conditions: 700 bp promoter region of ANF; 50 ng DNA; FIG. 8B.
From the text: as §1

Where [3] appears, read: NRVM transduced with Ad.Creb312(FL), ER stress-inducing chemicals, within one hour, Western Blot anti-HA.
Where [4] appears, read: NRVM expressing HA-Creb312(FL), 24 h exposure to hypertrophic agonists, FIG. 4D.

Experimental findings from patent publication US20100210713A1, “REGENERATION AND SURVIVAL OF CARDIAC PROGENITORS AND CARDIOMYOCYTES WITH A STRETCH ACTIVATED TRANSCRIPTION FACTOR” (THE GENERAL HOSPITAL CORPORATION, priority 2009, published 2010) are described below.

“Also recorded” adds a separate entry of the source.

Take `O[C@H](CS)[C@H](O)CS` (racemic) [DTT, dithiothreitol]: in the assay with Creb312 [1] (setting [3]), the “proteolytic cleavage of Creb312 (formation of the nuclear form)” value (shortened to “proteolytic cleavage of Creb312”) was “to a lesser extend”.
Take `O=c1[nH]c2ccccc2n1C1CCN(Cc2ccc(-c3nc4cc5[nH]cnc5cc4nc3-c3ccccc3)cc2)CC1` [Akt1/2]: the “effect on formation of the proteolytically cleaved, nuclear form of Creb312 in response to mechanical stretch” value (from here on “effect on formation”) was “complete ablation” in the assay on Creb312 [2] and “completely inhibited” in the assay with Creb312 [2] (listed as Akt1/2 Inh).
In the case of `COc1cccc(-c2cc(=O)c3ccccc3o2)c1N` [PD98059], the “effect on formation” value in the assay with Creb312 [2] is reported as “did not show any effect; also recorded: did not inhibit”.
Turning to `CC(C)(C)n1nc(-c2ccc(Cl)cc2)c2c(N)ncnc21` [PP2], the “effect on formation” value in the assay with Creb312 [2] is “did not show any effect; also recorded: did not inhibit”.
On the same count and under the same terms, in the case of `C[S+]([O-])c1ccc(-c2nc(-c3ccncc3)c(-c3ccc(F)cc3)[nH]2)cc1` (centres unmarked) [SB203580] it was “did not show any effect; also recorded: did not inhibit”; in that of `Oc1c2ccccc2c2c3c(cccc13)N=N2` [SP600125], “did not inhibit”; in that of `N#CC(=C(/N)Sc1ccccc1N)/C(C#N)=C(\N)Sc1ccccc1N` [U0126], “did not show any effect; also recorded: did not inhibit”.
For `C[C@H]1CCC/C=C/[C@@H]2C[C@H](O)C[C@H]2[C@H](O)/C=C/C(=O)O1` [brefeldinA], the “proteolytic cleavage of Creb312” value in the assay on Creb312 [1] (setting [3]) is reported as “caused proteolytic cleavage of Creb312”.
As for `CCCC(=O)Nc1ncnc2c1ncn2[C@@H]1O[C@@H]2COP(=O)(O)O[C@H]2[C@H]1OC(=O)CCC` [dbcA], the “formation of nuclear Creb312 in response to cAMP treatment” value with Creb312 [1] (NRVM, data not shown) is “nuclear Creb312 is formed”.
Regarding `CC[C@H](C)[C@H](NC(=O)[C@H](CC(=O)O)NC(=O)[C@H](CC(C)C)NC(=O)[C@H](Cc1c[nH]cn1)NC(=O)[C@@H]1CSSC[C@H](N)C(=O)N[C@@H](CO)C(=O)N[C@H]2CSSC[C@H](NC(=O)[C@H](CCC(=O)O)NC(=O)[C@H](CCCCN)NC(=O)[C@H](CC(=O)O)NC(=O)[C@H](CCSC)NC(=O)[C@H](CC(C)C)NC(=O)[C@H](CO)NC(=O)[C@H](CO)NC2=O)C(=O)N[C@@H](C(C)C)C(=O)N[C@@H](Cc2ccc(O)cc2)C(=O)N[C@@H](Cc2ccccc2)C(=O)N1)C(=O)N[C@H](C(=O)N[C@@H](Cc1c[nH]c2ccccc12)C(=O)O)[C@@H](C)CC` [endothelin-1], the “proteolytic cleavage of Creb312” value in the assay on Creb312 [1] (setting [4]) was “formation of the proteolytically cleaved, nuclear form of Creb312”.
Still for that read-out and setting: under `CC(C)NCC(O)c1ccc(O)c(O)c1` (centres unmarked) [isoproterenol] stands “most strongly induced; also recorded: formation of the proteolytically cleaved, nuclear form of Creb312”; under `CNC[C@H](O)c1cccc(O)c1` [phenylephrine], “most strongly induced; also recorded: formation of the proteolytically cleaved, nuclear form of Creb312”.
Regarding `C/C=C(/C)C(=O)O[C@H]1C(C)=C2[C@H]([C@@H]1OC(=O)CCCCCCC)[C@@](C)(OC(C)=O)C[C@H](OC(=O)CCC)[C@@]1(O)[C@H]2OC(=O)[C@@]1(C)O` [thapsigargin], the “proteolytic cleavage of Creb312” value with Creb312 [1] (setting [3]) is recorded as “caused proteolytic cleavage of Creb312”.
On to “angiotensin-2 (DRVYIHPF; Angiotensin-2; UniProt P01019 25-32, looked up) [hypertrophic agonist]”, for which, in the assay on Creb312 [1] (setting [4]), the “proteolytic cleavage of Creb312” value was “formation of the proteolytically cleaved, nuclear form of Creb312”.
As for tunicamycin, the “proteolytic cleavage of Creb312” value in the assay on Creb312 [1] (setting [3]) was “to a lesser extend”.

B1: Creb312(N): nuclear form of Creb312, residues 1-376 of the full length Creb312 (SEQ ID NO: 3) (protein, listed as Homo sapiens)
chain: MEVLESGEQGVLQWDRKLSELSEPGDGEALMYHTHFSELLDEFSQNVLGQLLNDPFLSEKSVSMEVEPSPTSPAPLIQAEHSYSLCEEPRAQSPFTHITTSDSFNDDEVESEKWYLSTDFPSTSIKTEPVTDEPPPGLVPSVTLTITAISTPLEKEEPPLEMNTGVDSSCQTIIPKIKLEPHEVDQFLNFSPKEAPVDHLHLPPTPPSSHGSDSEGSLSPNPRLHPFSLPQTHSPSRAAPRAPSALSSSPLLTAPHKLQGSGPLVLTEEEKRTLIAEGYPIPTKLPLSKSEEKALKKIRRKIKNKISAQESRRKKKEYMDSLEKKVESCSTENLELRKKVEVLENTNRTLLQQLQKLQTLVMGKVSRTCKLAGTQT
In the case of B1, the “BNP regulated luciferase gene expression” value with BNP promoter region (2 kb promoter region of BNP, FIG. 8C) is “induced”; in the assay with BNP promoter region (135 bp promoter region of BNP, FIG. 8D), “induced”. Also, in the assay on BNP promoter region ((−135 to −115) BNP promoter region, 200 ng DNA, FIG. 10C), the “fold activation of luciferase gene expression” value is “three fold”. In addition, the “ANF regulated luciferase gene expression” value in the assay with ANF promoter region is given as “induced”.
